Data reported in patent publication US5169944A, “Methods and compositions for the enteral administration of hepatobiliary MRI contrast agents” (Board of Regents of the University of Washington, priority 1991, dated 1992).
“Also recorded” adds a separate entry of the source.

Assays:
liver = conditions: cited from earlier work; for contrast enhancement: subsequent limited imaging experiments
Vx-2 tumor = assay: MRI signal enhancement, Vx-2 carcinoma model: tumor; format: in vivo, New Zealand White (NZW) rabbits; conditions: i.v. 0.04 mmol/kg, 30 minutes
gall bladder = conditions: i.v. 0.04 mmol/kg, 30 minutes
[1] = solubility and stability in hydrophilic and lipophilic solvents
liver abscess = assay: MRI enhancement in liver abscess rats: liver abscess; format: in vivo, Sprague-Dawley rats
[2] = Deaths following the imaging experiment; format: in vivo, Sprague-Dawley rats; conditions: 5 rats per agent, i.v.; unclear whether due to contrast media or anesthesia
Method: Pyrogenic liver abscesses were induced in Sprague-Dawley rats following the method of Weinsten, WM, 1975. Twelve female sprague-Dawley rats (250-300 g each) underwent midline laparotomy following intraperitoneal anesthesia with sodium pentobarbital (40-50 mg/kg), and a filtered bacterial inoculum of colonic contents was directly injected into the liver of each rat. Two animals died within 24 hours following surgery and were excluded from the study. The remaining 10 rats underwent MR imaging 4-6 days after surgery, as described below.
These studies were done at an estimated 1/10 of the LD50 of protoporphyrin (Jackson et al, 1985).

normal liver parenchyma [3] = tested on: normal liver parenchyma
Method: Imaging experiments were performed with a General Electric CSI-II 2.0 T (85.6 Mhz proton resonant frequency) chemical shift imaging spectrometer (GE Medical Systems, Fremont, Calif.). The proton imaging sequence used was that of a standard pin echo 2DFT sequence that employed a single 3 mm slice thickness with four phase cycled signal acquisitions. […] Coronal images were obtained of the rats+ abdomen and thorax using a TR of 160 msec and a TE of 16 msec. A specially designed 53 mm outer diameter (130 mm long) imaging coil of the low-pass birdcage resonantor design was employed with a balanced-matched tuning network for all images. […]
Signal intensity was measured by region-of-interest (ROI) analysis both for normal liver parenchyma, liver lesions and a corn oil standard. […] Signal intensity was measured over the center of the hepatic abscesses. Signal intensities were also determined for normal subcutaneous tissue in the area of the thoracic wall and for subcutaneous abscesses located in the anterior abdominal wall in rats with liver abscesses. Measured signal intensities (SI) were normalized to the intensity of the corn oil standard for all pre- and postcontrast images. Signal intensity enhancement was calculated according to the formula: (SI postcontrast-SI precontrast)/SI precontrast. […]

normal liver tissue [4] = conditions: i.v. 0.04 mmol/kg, 30 minutes
[5] = in vitro
normal liver tissue [6] = conditions: gastric lavage, 0.05 mmol/kg Mn mesoporphyrin + […] mixed micelles, 4 hours
subcutaneous abscesses = assay: MRI enhancement in liver abscess rats: subcutaneous abscesses; format: in vivo, Sprague-Dawley rats; conditions: for enhancement of subcutaneous abscesses (in words): i.v.
normal liver parenchyma [7] = assay: MRI enhancement in normal and liver abscess rats: normal liver parenchyma; format: in vivo, Sprague-Dawley rats
[8] = tested on: liver metastases (mammary adenocarcinoma R3230 AC); assay: MRI enhancement in rats with liver metastases: tumor; format: in vivo, Fischer 344 female rats; conditions: for visualization of tumor deposits: i.v.
Method: The entire procedure was performed under sterile conditions. Four animals died within 48 hours following surgery.

[9] = tested on: normal subcutaneous tissue; assay: MRI enhancement in liver abscess rats: normal subcutaneous tissue; format: in vivo, Sprague-Dawley rats; conditions: for enhancement of normal subcutis (in words): i.v.
[10] = early work; cited from earlier work
[11] = rat, in vivo

manganese uroporphyrin
contrast enhancement (liver): produced dramatic contrast effects in the kidneys and urine

manganese (III) mesoporphyrin [Mn mesoporphyrin]
enhancement of the tumor tissue (MRI signal intensity) (Vx-2 tumor): 12.7+/-12.1% | statistical significance of tumor enhancement (Vx-2 tumor): not statistically significant | enhancement of the gall bladder (MRI signal intensity) (gall bladder): 373+/-92.3% | solubility in K2PO4 / water-based buffer [1]: improved solubility in high pH solutions | contrast enhancement of normal hepatic tissue (liver; T1 weighted MRI, non-toxic doses): contrast enhancement of normal hepatic tissue leading to improved diagnostic visualization of tumors and abscesses | enhancement of liver abscesses (in words) (liver abscess; i.v., any time): not enhanced at any time | death following the imaging experiment [2]: one | increase of signal intensity of normal liver parenchyma over baseline (normal liver parenchyma [3]; 24 and 48 hrs, n=3 rats, may be artificially high): 30% | maximum enhancement of normal liver parenchyma (normal liver parenchyma [3]; i.v. 0.035 mmol/kg, over 60 min): 70% | enhancement of the liver (MRI signal intensity) (normal liver tissue [4]): 89.6+/-17.5% | binding by cholestyramine [5]: cholestyramine binds Mn mesoporphyrin | enhancement of normal liver tissue over baseline (normal liver tissue [6]): 65% | enhancement of subcutaneous abscesses (in words) (subcutaneous abscesses): did not yield enhancement; also recorded: did not enhance either subcutis or subcutaneous abscesses | liver enhancement (normal liver parenchyma [7]; i.v. 0.035-0.045 mmol/kg, 10 minutes, p less than 0.01): 43% | prolonged enhancement of normal liver parenchyma (normal liver parenchyma [7]; i.v., over the observation period of 60 min, significant): 30-50% | delayed tumor enhancement ([8]; 24 and 48 hrs, n=3 rats): no delayed tumor enhancement was observed | visualization of tumor deposits [8]: made visualization of tumor deposits extremely simple | effect on signal intensity of metastases ([8]; i.v. 0.035 mmol/kg, center and periphery of tumors, over 60 min, n=6 rats): did not significantly affect the signal intensity of metastases | enhancement of normal subcutis (in words) [9]: did not yield enhancement; also recorded: did not enhance either subcutis or subcutaneous abscesses | tumor-to-liver contrast (liver metastases; gastric, 0.05 mmol/kg + […] mixed micelles, single observation vs control animal): significant increase of the tumor-to-liver contrast | enhancement properties, oral vs intravenous (liver metastases; tumor-to-liver contrast, oral administration): substantially equivalent to the properties established for intravenous administration

CNC[C@H](O)[C@@H](O)[C@H](O)[C@H](O)CO.CNC[C@H](O)[C@@H](O)[C@H](O)[C@H](O)CO.O=C([O-])CN(CCN(CC(=O)[O-])CC(=O)O)CCN(CC(=O)[O-])CC(=O)O.[Gd+3] [Gd-DTPA, gadopentetate dimeglumine]
contrast enhancement of normal liver and focal liver lesions (liver; intravenous): nonselectively enhances either normal liver, focal liver lesions or both

C=CC1=C(C)c2cc3[nH]c(cc4nc(cc5[nH]c(cc1n2)c(C)c5CCC(=O)O)C(CCC(=O)O)=C4C)c(C)c3C=C [protoporphyrin]
T1 effects in the liver (liver; early work): tissue specific T1(inversion time) effects were clearly demonstrated in the liver | solubility [10]: poor solubility | toxicity [10]: apparent high toxicity

C=CC1=C(C)c2cc3[n-]c(cc4[n-]c(cc5nc(cc1n2)C(C)=C5C=C)c(C)c4CCC(=O)[O-])c(CCC(=O)[O-])c3C.[H+].[H+].[Mn+2] [manganese protoporphyrin]
contrast enhancement (liver): caused hepatic and biliary contrast enhancement

O=S(=O)([O-])c1ccc(-c2c3nc(c(-c4ccc(S(=O)(=O)[O-])cc4)c4ccc([nH]4)c(-c4ccc(S(=O)(=O)[O-])cc4)c4nc(c(-c5ccc(S(=O)(=O)[O-])cc5)c5ccc2[nH]5)C=C4)C=C3)cc1.[Mn+4] [Mn TPPS4, manganese tetrakis-(4-sulfonatophenyl)porphyrin, reference compound]
contrast between normal and diseased tissue (liver abscess; i.v.): enhanced both normal liver and abscesses, thus providing no improved contrast between normal and diseased tissue | enhancement of liver abscess (liver abscess; i.v. Mn TPPS4, 10 minutes post injection, p less than 0.05): 63% | death following the imaging experiment [2]: One rat | skin discoloration [11]: green discoloration of the skin | enhancement of subcutaneous abscesses (in words) (subcutaneous abscesses): enhanced both subcutis and subcutaneous abscesses | enhancement of subcutaneous abscesses (subcutaneous abscesses; i.v. Mn TPPS4, 60 minutes, p greater than 0.05): 88% | enhancement of normal liver parenchyma (normal liver parenchyma [7]; i.v. Mn TPPS4, 10 minutes post injection, p greater than 0.05): 43% | visualization of tumor deposits [8]: failed to help in distinguishing the site of the tumor deposits | enhancement of liver and tumor / lesion discrimination ([8]; i.v. Mn-TPPS4): enhanced both liver and tumor thus providing no discrimination of the lesion | enhancement of normal subcutis (in words) [9]: enhanced both subcutis and subcutaneous abscesses | enhancement of normal subcutaneous tissue ([9]; i.v. Mn TPPS4, 60 minutes, p less than 0.05): 56%

O=C([O-])CN(CCN(CC(=O)[O-])CC(=O)[O-])CCN(CC(=O)[O-])C(COCc1ccccc1)C(=O)[O-].[Gd+3] (stereo not drawn) [Gd-BOPTA]
hepatic excretion and bile duct opacification (liver; in vivo): undergoes hepatic excretion and opacifies the bile ducts
